Measured values as given in patent US12077503B2, “Substituted cyclic amides and their use as herbicides” (FMC CORPORATION, priority 2015, dated 2024).
Read-outs that look alike come from different tables or passages of the source.

What was measured:
Assay type in all cases: in vivo
rice (Oryra sativa) = test: Test B flooded paddy test; conditions: Oryza sativa, Flood, 250 g ai/ha
In short: (§1)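 Plants at 2-leaf stage flooded to 3 cm above soil, with compounds applied directly to paddy water and that depth maintained. Plants kept in greenhouse 13–15 d. Visual rating versus controls on a 0 (no effect) to 100 (complete control) scale.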

[1] = test system: ducksalad (Heteranthera limosa); test: Test B flooded paddy test; conditions: Heteranthera limosa, Flood, 250 g ai/ha
In short: as §1

[2] = test system: sedge, umbrella (small-flower umbrella sedge, Cyperus difformis); test: Test B flooded paddy test; conditions: Cyperus difformis, Flood, 250 g ai/ha
In short: as §1

[3] = test system: barnyardgrass (Echinochloa crus-galli); test: Test B flooded paddy test; conditions: Echinochloa crus-galli, Flood, 250 g ai/ha
In short: as §1

[4] = test system: ragweed (common ragweed, Ambrosia elatior); test: Test A postemergence; conditions: Ambrosia artemisiifolia, post-emergence, 240 h; for pest or weed control at 125 g/ha: 125 g ai/ha; for pest or weed control at 500 g/ha: 500 g ai/ha, visual injury, approx. 10 d
In short: (§2)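 Preemergence directed soil spray on seeded pots, or postemergence application to plants 2–10 cm, one- to two-leaf. Solvent mixture non-phytotoxic, with surfactant. Scored ~10 d later, visually, 0–100 vs untreated.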

[5] = test system: giant foxtail (Setaria faberii); test: Test A postemergence; conditions: Setaria faberi, post-emergence, 240 h; for pest or weed control at 125 g/ha: 125 g ai/ha; for pest or weed control at 500 g/ha: 500 g ai/ha, visual injury, approx. 10 d
In short: as §2

[6] = test system: pigweed (Amaranthus retroflexus); test: Test A postemergence; conditions: Amaranthus retroflexus, post-emergence, 240 h; for pest or weed control at 125 g/ha: 125 g ai/ha; for pest or weed control at 500 g/ha: 500 g ai/ha, visual injury, approx. 10 d
In short: as §2

[7] = test system: ryegrass, Italian (Italian ryegrass, Lolium multiflorum); test: Test A postemergence; conditions: Lolium multiflorum, post-emergence, 240 h; for pest or weed control at 125 g/ha: 125 g ai/ha; for pest or weed control at 500 g/ha: 500 g ai/ha, visual injury, approx. 10 d
In short: as §2

[8] = test system: blackgrass (Alopecurus myosuroides); test: Test A postemergence; conditions: Alopecurus myosuroides, post-emergence, 240 h; for pest or weed control at 125 g/ha: 125 g ai/ha; for pest or weed control at 500 g/ha: 500 g ai/ha, visual injury, approx. 10 d
In short: as §2

corn (Zea mays) = test: Test A postemergence; conditions: Zea mays, post-emergence, 240 h; for plant injury at 125 g/ha / Corn plant response rating (crop injury, 0 = no effect, 100 = complete kill) at 500 g/ha: Postemergence; for plant injury at 125 g/ha: visual rating about 10 d after treatment, read-out: Corn plant response rating (0 to 100 scale); for Corn plant response rating (crop injury, 0 = no effect, 100 = complete kill) at 500 g/ha: 500 g ai/ha, visual injury, approx. 10 d
In short: as §2

[9] = test system: barnyardgrass (Echinochloa crus-galli); test: Test A postemergence; conditions: Echinochloa crus-galli, post-emergence, 240 h, 125 g ai/ha, postemergence; visual injury after approximately 10 d; 0 to 100 scale (0 no effect, 100 complete control); read-out: Plant response rating, Barnyardgrass
In short: as §2

Kochia (Kochia scoparia) = test: Test A postemergence; conditions: Bassia scoparia, post-emergence, 240 h; for pest or weed control at 125 g/ha: 125 g ai/ha; for pest or weed control at 500 g/ha: 500 g ai/ha, visual injury, approx. 10 d
In short: as §2

[10] = test system: Galium (catchweed bedstraw, Galium aparine); test: Test A postemergence; conditions: Galium, post-emergence, 240 h; for pest or weed control at 125 g/ha: 125 g ai/ha; for pest or weed control at 500 g/ha: 500 g ai/ha, visual injury, approx. 10 d
In short: as §2

[11] = test system: wheat (Triticum aestivum); test: Test A postemergence; conditions: Triticum aestivum, post-emergence, 240 h; for plant injury at 125 g/ha: 125 g ai/ha; for plant injury at 500 g/ha: 500 g ai/ha, visual injury, approx. 10 d
In short: as §2

[12] = Postemergence, visual rating about 10 d after treatment, read-out: Ragweed plant response rating (0 to 100 scale)
[13] = Postemergence, 0 to 100 scale (0 no effect, 100 complete control), read-out: Plant response rating, Ragweed
[14] = Postemergence, visual rating about 10 d after treatment, read-out: Foxtail, Giant plant response rating (0 to 100 scale)
[15] = Postemergence, 0 to 100 scale (0 no effect, 100 complete control), read-out: Plant response rating, Foxtail, Giant
[16] = Postemergence, visual rating about 10 d after treatment, read-out: Pigweed plant response rating (0 to 100 scale)
[17] = Postemergence, 0 to 100 scale (0 no effect, 100 complete control), read-out: Plant response rating, Pigweed
[18] = Postemergence, visual rating about 10 d after treatment, read-out: Ryegrass, Italian plant response rating (0 to 100 scale)
[19] = Postemergence, 0 to 100 scale (0 no effect, 100 complete control), read-out: Plant response rating, Ryegrass, Italian
[20] = Postemergence, visual rating about 10 d after treatment, read-out: Blackgrass plant response rating (0 to 100 scale)
[21] = Postemergence, 0 to 100 scale (0 no effect, 100 complete control), read-out: Plant response rating, Blackgrass
[22] = 0 to 100 scale (0 no effect, 100 complete control)
[23] = Postemergence, visual rating about 10 d after treatment, read-out: Kochia plant response rating (0 to 100 scale)
[24] = Postemergence, 0 to 100 scale (0 no effect, 100 complete control), read-out: Plant response rating, Kochia
[25] = Postemergence, visual rating about 10 d after treatment, read-out: Galium plant response rating (0 to 100 scale)
[26] = Postemergence, 0 to 100 scale (0 no effect, 100 complete control), read-out: Plant response rating, Galium
[27] = Postemergence, visual rating about 10 d after treatment, read-out: Wheat plant response rating (0 to 100 scale)
[28] = Postemergence, 0 to 100 scale (0 no effect, 100 complete control), read-out: Plant response rating, Wheat

| SMILES | pest or weed control at 125 g/ha [4, 12] | pest or weed control at 500 g/ha [4, 13] | pest or weed control at 125 g/ha [5, 14] | pest or weed control at 500 g/ha [5, 15] | pest or weed control at 125 g/ha [6, 16] | pest or weed control at 500 g/ha [6, 17] | pest or weed control at 125 g/ha [7, 18] | pest or weed control at 500 g/ha [7, 19] | pest or weed control at 125 g/ha [8, 20] | pest or weed control at 500 g/ha [8, 21] | plant injury at 125 g/ha (corn (Zea mays); 125 g ai/ha) | Corn plant response rating (crop injury, 0 = no effect, 100 = complete kill) at 500 g/ha (corn (Zea mays); [22]) | pest or weed control at 125 g/ha (Kochia (Kochia scoparia); [23]) | pest or weed control at 500 g/ha (Kochia (Kochia scoparia); [24]) | pest or weed control at 125 g/ha [10, 25] | pest or weed control at 500 g/ha [10, 26] | plant injury at 125 g/ha [11, 27] | plant injury at 500 g/ha [11, 28] | also measured |
| --- | --- | --- | --- | --- | --- | --- | --- | --- | --- | --- | --- | --- | --- | --- | --- | --- | --- | --- | --- |
| CN1C[C@H](c2cccc([N+](=O)[O-])c2)[C@@H](C(=O)Nc2cccc(F)c2F)C1=O (racemic) [Compound 776] | – | – | – | – | – | – | – | – | – | – | – | – | – | – | – | – | – | – | pest or weed control at 250 g/ha (rice (Oryra sativa); scale of 0 to 100 where 0 is no effect and 100 is complete control, read-out: Rice plant response rating): 0%; pest or weed control at 250 g/ha ([1]; scale of 0 to 100 where 0 is no effect and 100 is complete control, read-out: Ducksalad plant response rating): 80%; pest or weed control at 250 g/ha ([2]; scale of 0 to 100 where 0 is no effect and 100 is complete control, read-out: Sedge, Umbrella plant response rating): 0%; pest or weed control at 250 g/ha ([3]; scale of 0 to 100 where 0 is no effect and 100 is complete control, read-out: Barnyardgrass plant response rating): 80%; pest or weed control at 125 g/ha ([4]; postemergence, visual injury after approximately 10 d, 0 to 100 scale (0 no effect, 100 complete control), read-out: Plant response rating, Ragweed): 0%; pest or weed control at 125 g/ha ([5]; postemergence, visual injury after approximately 10 d, 0 to 100 scale (0 no effect, 100 complete control), read-out: Plant response rating, Foxtail, Giant): 80%; pest or weed control at 125 g/ha ([6]; postemergence, visual injury after approximately 10 d, 0 to 100 scale (0 no effect, 100 complete control), read-out: Plant response rating, Pigweed): 0%; pest or weed control at 125 g/ha ([7]; postemergence, visual injury after approximately 10 d, 0 to 100 scale (0 no effect, 100 complete control), read-out: Plant response rating, Ryegrass, Italian): 20%; pest or weed control at 125 g/ha ([8]; postemergence, visual injury after approximately 10 d, 0 to 100 scale (0 no effect, 100 complete control), read-out: Plant response rating, Blackgrass): 30%; Corn plant response rating (crop injury, 0 = no effect, 100 = complete kill) at 125 g/ha (corn (Zea mays); 125 g ai/ha, postemergence, visual injury after approximately 10 d, 0 to 100 scale (0 no effect, 100 complete control)): 30%; pest or weed control at 125 g/ha [9]: 80%; pest or weed control at 125 g/ha (Kochia (Kochia scoparia); postemergence, visual injury after approximately 10 d, 0 to 100 scale (0 no effect, 100 complete control), read-out: Plant response rating, Kochia): 20%; pest or weed control at 125 g/ha ([10]; postemergence, visual injury after approximately 10 d, 0 to 100 scale (0 no effect, 100 complete control), read-out: Plant response rating, Galium): 20%; plant injury at 125 g/ha ([11]; postemergence, visual injury after approximately 10 d, 0 to 100 scale (0 no effect, 100 complete control), read-out: Plant response rating, Wheat): 30% |
| Cc1cc([C@H]2CN(C)C(=O)[C@@H]2C(=O)Nc2cccc(F)c2C)ccc1F [Compound 1311] | 0% | 30% | 90% | 90% | 0% | 20% | 40% | 80% | 60% | 60% | 70% | 80% | 30% | 50% | 50% | 60% | 60% | 80% | pest or weed control at 250 g/ha (rice (Oryra sativa); 0 to 100 scale where 0 is no effect and 100 is complete control, read-out: Rice plant response rating): 0%; pest or weed control at 250 g/ha ([1]; 0 to 100 scale where 0 is no effect and 100 is complete control, read-out: Ducksalad plant response rating): 100%; pest or weed control at 250 g/ha ([2]; 0 to 100 scale where 0 is no effect and 100 is complete control, read-out: Sedge, Umbrella plant response rating): 0%; pest or weed control at 250 g/ha ([3]; 0 to 100 scale where 0 is no effect and 100 is complete control, read-out: Barnyardgrass plant response rating): 80% |
| COc1cc(OC)cc([C@H]2CN(C)C(=O)[C@@H]2C(=O)Nc2cccc(F)c2F)c1 [Compound 1370] | 0% | 30% | 90% | 90% | 0% | 30% | 40% | 70% | 50% | 80% | 30% | 80% | 50% | 50% | 40% | 50% | 40% | 70% | pest or weed control at 250 g/ha (rice (Oryra sativa); 360 h, visually evaluated after 13 to 15 d, read-out: Plant response rating, Rice (0 to 100 scale where 0 is no effect and 100 is complete control)): 20%; pest or weed control at 250 g/ha ([1]; 360 h, visually evaluated after 13 to 15 d, read-out: Plant response rating, Ducksalad (0 to 100 scale where 0 is no effect and 100 is complete control)): 70%; pest or weed control at 250 g/ha ([2]; 360 h, visually evaluated after 13 to 15 d, read-out: Plant response rating, Sedge, Umbrella (0 to 100 scale where 0 is no effect and 100 is complete control)): 0%; pest or weed control at 250 g/ha ([3]; 360 h, visually evaluated after 13 to 15 d, read-out: Plant response rating, Barnyardgrass (0 to 100 scale where 0 is no effect and 100 is complete control)): 60% |
